Laboratory results: patent US20050153870A1, “Medicinal composition for diagnosis, prevention, or therapy of multiple risk factor syndrome” (priority 2002, published 2005)

Test system: non-insulin dependent type II diabetes patients
Test: Clinical test II
Format: in vivo, human
Conditions: for Body weight: week 0: 61.4 ± 10.21, in kg; for Serum neutral fat: week 0: 199.6 ± 88.29; for number of patients, Feeling of weariness Absent: before medication 0 of 25; for number of patients, Large amount of urine excretion Absent: before medication 0 of 30; for number of patients, Feeling of fatigue Absent: before medication 1 of 15; for number of patients, Throat dry Absent: before medication 1 of 30; for number of patients, Pain in the calf of leg Absent: before medication 4 of 16; for number of patients, Pain in the calf of leg Present: before medication 12 of 16; for number of patients, Feeling of fatigue Present: before medication 14 of 15; for number of patients, Feeling of weariness Present: before medication 25 of 25; for number of patients, Throat dry Present: before medication 29 of 30; for number of patients, Large amount of urine excretion Present: before medication 30 of 30
Description: On the other hand, Clinical test II was performed in a group of 79 participants from non-insulin dependent diabetic patients.
79 non-insulin dependent type II diabetes patients whose blood sugar is well-controlled under dietary therapy (all were mongoloid Japanese) participated in Clinical test II. They were forbidden to use sulfonyl urea and biguanide agent which is a therapeutic agent for type II diabetes, and a fibrate series medicament, nicotinic acid, and probucol which is a serum fat decreasing agent; however use of an antihypertensive agent is not particularly prohibited. They participated on a voluntary basis after they signed informed consent for clinical test participation, which was proposed by a medical institution based on the Helsinki declaration. The participants consisted of 26 males and 53 females. An average age at the sign-up time was 58±9.9 years old (average value±standard deviation), ranging from 37 to 81 years old. The body weight of patients was divided by standard body weight obtained from the standard body-weight table issued by Meiji life Insurance Company. This index was 1.24±0.154 (average value±standard deviation) at the sign-up time, meaning that there are many obese persons. After 12 weeks, the body weight index decreased to 1.18±0.137(average value±standard deviation).
The number of patients having normal blood pressure was 58 (of them, 31 patients were taking an antihypertensive agent).

[1] = 30 cases with diabetic complications

COc1c(Cl)c(C)c(C=O)c(O)c1C/C=C(C)/C=C/[C@@]1(C)[C@H](C)CCC(=O)[C@@H]1C [4-O-methylascochlorin]
Fasting blood sugar, change vs week 0 (6 mg/kg, week 4): −9.1% (n = 69)
Serum neutral fat, change vs week 0 (6 mg/kg, week 4): −15.2% (n = 62)
Total serum cholesterol, change vs week 0 (6 mg/kg, week 4): −14.3% (n = 60)
Body weight (6 mg/kg, week 4): 61.4 ± 9.63
Fasting blood sugar (6 mg/kg, week 4, week 0: 162 ± 50.68): 146.1 ± 41.06
Serum neutral fat (6 mg/kg, week 4): 173.5 ± 71.25
Total serum cholesterol (6 mg/kg, week 4, week 0: 265.3 ± 69.75): 238.7 ± 51.33
Fasting blood sugar, change vs week 0 (6 mg/kg, week 8): −8.9% (n = 74)
Serum neutral fat, change vs week 0 (6 mg/kg, week 8): −22.7% (n = 59)
Total serum cholesterol, change vs week 0 (6 mg/kg, week 8): −18.6% (n = 61)
Body weight (6 mg/kg, week 8): 60.7 ± 8.88
Fasting blood sugar (6 mg/kg, week 8, week 0: 162 ± 50.68): 147.9 ± 46.94
Serum neutral fat (6 mg/kg, week 8): 162.3 ± 65.89
Total serum cholesterol (6 mg/kg, week 8, week 0: 265.3 ± 69.75): 228.0 ± 43.65
Fasting blood sugar, change vs week 0 (6 mg/kg, week 12): −10.8% (n = 71)
Serum neutral fat, change vs week 0 (6 mg/kg, week 12): −21.8% (n = 69)
Total serum cholesterol, change vs week 0 (6 mg/kg, week 12): −19.7% (n = 69)
Body weight (6 mg/kg, week 12): 60.3 ± 9.07
Fasting blood sugar (6 mg/kg, week 12, week 0: 162 ± 50.68): 142.2 ± 44.03
Serum neutral fat (6 mg/kg, week 12): 158.8 ± 73.28
Total serum cholesterol (6 mg/kg, week 12, week 0: 265.3 ± 69.75): 220.04 ± 46.17
number of patients, Feeling of weariness Absent (4th week): 10
number of patients, Large amount of urine excretion Absent (4th week): 16
number of patients, Feeling of fatigue Absent (4th week): 5
number of patients, Throat dry Absent (4th week): 16
number of patients, Pain in the calf of leg Absent (4th week): 9
number of patients, Pain in the calf of leg Present (4th week): 7
number of patients, Feeling of fatigue Present (4th week): 10
number of patients, Feeling of weariness Present (4th week): 15
number of patients, Throat dry Present (4th week): 14
number of patients, Large amount of urine excretion Present (4th week): 14
symptoms associated with diabetic nephropathy such as throat dry and excessive urination (5 excluded cases of type II diabetic patients having 10-20 year's disease history): disappeared from all patients
number of patients, Feeling of weariness Absent (8th week): 19
number of patients, Large amount of urine excretion Absent (8th week): 22
number of patients, Feeling of fatigue Absent (8th week): 13
number of patients, Throat dry Absent (8th week): 23
number of patients, Pain in the calf of leg Absent (8th week): 10
number of patients, Pain in the calf of leg Present (8th week): 6
number of patients, Feeling of fatigue Present (8th week): 2
number of patients, Feeling of weariness Present (8th week): 6
number of patients, Throat dry Present (8th week): 7
number of patients, Large amount of urine excretion Present (8th week): 8
decrease of body weight compared to before medication (12-week medication): 0.9 kg
number of patients, Feeling of weariness Absent (12th week): 24
number of patients, Large amount of urine excretion Absent (12th week): 29
number of patients, Feeling of fatigue Absent (12th week): 15
number of patients, Throat dry Absent (12th week): 28
number of patients, Pain in the calf of leg Absent (12th week): 14
number of patients, Pain in the calf of leg Present (12th week): 2
number of patients, Feeling of fatigue Present (12th week): 0
number of patients, Feeling of weariness Present (12th week): 1
number of patients, Throat dry Present (12th week): 2
number of patients, Large amount of urine excretion Present (12th week): 1
feeling of fatigue, feeling of weariness, pain in the calf of leg (diabetic neuropathy) [1]: improved these symptoms with the passage of time
throat dry and excessive urination (symptoms of diabetic nephropathy) [1]: significantly improved
abnormality in the serum biological test, hematocyte test, and urine test (79 patients, 12-week medication): did not bring any abnormality
side effect (79 patients, 12-week medication, 6 mg/kg, transient, disappeared within a week): Two cases of light eruption
Fasting blood sugar, change vs before medication (High blood sugar group FBS > 130 mg/dl, 4th week): −11.3% (n = 45)
Fasting blood sugar (High blood sugar group FBS > 130 mg/dl, 4th week, before medication 187.6 ± 40.39): 167.3 ± 34.50 mg/dL
Fasting blood sugar, change vs before medication (High blood sugar group FBS > 130 mg/dl, 8th week): −11.8% (n = 49)
Fasting blood sugar (High blood sugar group FBS > 130 mg/dl, 8th week, before medication 187.6 ± 40.39): 167.8 ± 44.82 mg/dL
Fasting blood sugar, change vs before medication (High blood sugar group FBS > 130 mg/dl, 12th week): −13.8% (n = 46)
Fasting blood sugar (High blood sugar group FBS > 130 mg/dl, 12th week, before medication 187.6 ± 40.39): 161.7 ± 41.79 mg/dL
Total serum cholesterol, change vs before medication (High cholesterol group 300-200 mg/dl, 4th week): −11.8% (n = 26)
Total serum cholesterol (High cholesterol group 300-200 mg/dl, 4th week, before medication 267.6 ± 23.66): 240.8 ± 38.92 mg/dL
Total serum cholesterol, change vs before medication (High cholesterol group 300-200 mg/dl, 8th week): −13.9% (n = 27)
Total serum cholesterol (High cholesterol group 300-200 mg/dl, 8th week, before medication 267.6 ± 23.66): 232.4 ± 36.01 mg/dL
Total serum cholesterol, change vs before medication (High cholesterol group 300-200 mg/dl, 12th week): −17.0% (n = 30)
Total serum cholesterol (High cholesterol group 300-200 mg/dl, 12th week, before medication 267.6 ± 23.66): 227.2 ± 45.36 mg/dL
Fasting blood sugar, change vs before medication (Normal blood sugar group FBS < 130 mg/dl, 4th week): ns (n = 24)
Fasting blood sugar (Normal blood sugar group FBS < 130 mg/dl, 4th week, before medication 108.8 ± 15.10): 106.4 ± 13.48 mg/dL
Fasting blood sugar, change vs before medication (Normal blood sugar group FBS < 130 mg/dl, 8th week): ns (n = 25)
